Tests used:
[1] = system: red rice; conditions: fields of transgenic rice bearing the bar gene (Oard et al. 2000); cited from earlier work
[2] = system: non-transformed tobacco plants; experiment: Seed germination in the presence of kanamycin or imazapyr (tobacco); format: in vivo, Nicotiana tabacum; conditions: tobacco seeds on Nitsch agar medium; sensitive seedlings stop growing within 10 days
Method: Surface sterilized seeds of wild type, the backcross of primary transformants with wild type T0 (=BC), T1, T2, and T3 tobacco plants were planted on either medium. Sensitive seedlings were identified as those that stopped growing within 10 days, forming only short roots and cotyledons, while resistant seedlings grew well, forming long roots and true leaves, continuing their growth past 10 days. The segregation ratio of wild type to TM of each line was calculated. Resistant/dwarfed seedlings were grown to maturity in soil and the plants were analyzed for AHAS resistance (phenotype) and for ahas^R and Δgai insert by PCR (genotype), as described herein above.
Competition of TM transgenics with the wild type, and self competition of each alone: The transgenic TM tobacco was used to simulate a TM introgressed hybrid or transgenic volunteer crop, and the wild type tobacco was used to simulate a non-transgenic crop, weed, or wild plant. The competitive interactions between the transgenic and wild type plants were assessed in two separate internally replicated greenhouse experiments. In both experiments, seeds obtained from the first backcross T1 (═BC1) of a representative TM line T1-7 (pollen recipient) and wild type (pollen donor) were used to grow mixed TM and wild type cultures. […]

[3] = system: non-transgenic B. napus; experiment: Rooting of regenerated plantlets in the presence of kanamycin; format: in vivo, Brassica napus; conditions: root formation of regenerated B. napus plantlets
Source text: Transformation of oilseed rape (B. napus cv. Westar): The Agrobacterium tumefaciens-mediated transformation protocol of Moloney, et al (Plant Cell Reports 1989; 8,238-242) using excised cotyledonary petioles of B. napus cv. Westar seedlings was followed with some modifications. Excised cotyledons of axenic B. napus cv. Westar seedlings were inoculated by dipping the cut end of a 2 mm petiole in a suspension of A. tumefaciens strain EHA105 or EHA 101 containing the same TM 1 construct described in detail in Example 1. Non-transformed cotyledons served as negative controls. After co-cultivation for 2.5 days, the cotyledons were regenerated on Murashige-Skoog (MS) medium containing 500 mg/L carbenicillin to kill A. tumefaciens and 20 mg/L kanamycin as the primary plant selectable marker. Some healthy calli developed on the cut petioles and regenerated into green shoots which were then sub-cultured onto shoot elongation medium containing 300 mg/L carbenicillin and either 20 mg/L kanamycin or 0.2 μM imazapyr herbicide as secondary selectable marker of the putative transformants. The shoots were then rooted, potted, and transferred to the greenhouse to grow flower and set seed. The putative transformants were tested by PCR (FIG. 5) and by AHAS enzymatic assay (as described in Example 1 herein above) (FIG. 6) to confirm TM transformation. […]

[4] = system: non-transformed B. napus plants; experiment: Seed germination in the presence of kanamycin or imazapyr (oilseed rape); format: in vivo, Brassica napus; conditions: B. napus seeds on Nitsch agar medium
Method: Seed germination in the presence of kanamycin or imazapyr: A discriminatory dose level of Nitsch (Nitsch, Nicotiana. Phytomorphology 1969; 19, 389-404) agar medium containing 150 mg/L kanamycin or 0.3 μM imazapyr inhibiting the growth of non-transformed plants was determined. Surface sterilized seeds of non-transgenic, and TM B. napus plants were planted on either medium. Sensitive seedlings stopped growing within 10 days forming only short roots and cotyledons, while resistant seedlings formed long roots and true leaves and continued their growth. The segregation ratio of non-transgenic to TM of each line was calculated. Resistant/dwarfed seedlings were grown to maturity in soil and the plants were analyzed for AHAS resistance and for ahas^R and Δgai insert by PCR, as described above.
Competition of TM transgenic vs. non-transgenic Brassica napus plants and self competition of each alone: The competitive interactions between the TM transgenic vs. non-transgenic Brassica napus plants were assessed in replicated greenhouse experiments. In the first experiment seeds obtained from the selfed homozygous TM lines T1-J9-4 and -6 were used to grow the TM plants in mixed cultures with the non-transgenic plants in a 1:1 TM/WT ratio. […]

[5] = system: Δgai-transformed male sterile tobacco plants; format: in vivo, Nicotiana tabacum; conditions: kinetin foliar spray; normal fertilization and seed development
Source text: Seed production on Δgai male sterile plants: The Δgai effect on pollen production is not irreversible: treatment of plants with cytokinins results in plants producing fertile pollen, and capable of self fertilization. Hemizygous imazapyr resistant and semi-dwarf primary TM tobacco transformants (lines 7, 8, and 10) were transferred to soil and grown to flowering. […] The chemicals were in an aqueous solution containing 0.1% (v/v) Tween 20 surfactant. The control group received the surfactant solution only, or none at all. All applications were made through foliar spray every other day for 2 weeks. Female fertility was assessed by backcrossing wild type pollen donors were backcrossed to one plant from each line without kinetin application (FIG. 4). At maturity, the capsules formed on each plant were counted and the dry weight of seed set of up to 5 capsules per each plant was measured. Normal seed set was observed.
Anthers were collected from three flowers per plant. A minimum of three plants per biotype were analyzed. Pollen viability was scored by staining the pollen with cotton blue stain [Phillips, R. L. in G. Clark, ed. […]
Floral bud and pistil development of the TM transgenic plants were similar to that of wild type plants. […] Pollen viability, scored by staining tests, of these restored lines was >93% compared to approximately 0% of non-treated plants (FIG. 4). […]

In the case of `CP(=O)(O)CCC(N)C(=O)O` (stereo not drawn) [glufosinate], the “Control of red rice” value [1] is listed as “easily controlled”.
In the case of `CC(C)C1(C)N=C(c2ncccc2C(=O)O)NC1=O` (stereo not drawn) [imazapyr], the “Discriminatory dose level inhibiting the growth of non-transformed plants” value [2] is reported as 0.3 µM.
For `NC[C@H]1O[C@H](O[C@H]2[C@H](O)[C@@H](O[C@H]3O[C@H](CO)[C@@H](O)[C@H](N)[C@H]3O)[C@H](N)C[C@@H]2N)[C@H](O)[C@@H](O)[C@@H]1O` [kanamycin], the “Kanamycin concentration which inhibits the non-transgenics” value [3] was 20 mg/L, the “Discriminatory dose level inhibiting the growth of non-transformed plants” value [4] was 150 mg/L and the “Discriminatory dose level inhibiting the growth of non-transformed plants” value [2] was 85.8 µM.
For `c1coc(CNc2ncnc3[nH]cnc23)c1` [kinetin], the “Restoration of fertility of male sterile TM transgenic plants” value [5] was “restored the fertility”.
